In patent publication US11952584B2, “Functional peptides having antimicrobial activity against phytopathogenic microorganisms” (TOYOTA JIDOSHA KABUSHIKI KAISHA, priority 2019, dated 2024):
Where “and” joins values, the source holds several entries; their conditions need not be identical. Identical values can stand only once. Like-named read-outs stand apart in the source and are kept apart here.

Experiments:
[1] = test system: Colletotrichum destructivum; format: cell-based; conditions: 25° C., 1 day or 2 days
Pyricularia oryzae = format: cell-based; conditions: 25° C., 1 day or 2 days
Fusarium oxysporum = format: cell-based
[2] = test system: Colletotrichum orbiculare; format: cell-based; conditions: 25° C., 1 day or 2 days
Botrytis cinerea [3] = format: cell-based; conditions: 25° C., 1 day or 2 days
[4] = test system: plant pathogenic filamentous fungi; format: cell-based; conditions: summary of Table 3
Botrytis cinerea [5] = assay: Botrytis cinerea leaf inoculation test (tomato leaf); format: in vivo; conditions: peptide 100 μM; tomato leaf, 25° C., 2 days, lesions by visual inspection
Method: In the present example, a suspension comprising Botrytis cinerea and a peptide to be tested was dropped on a plant leaf, and lesions were then observed by visual inspection to evaluate the antimicrobial activity of the tested peptide. First, the pores of Botrytis cinerea were suspended in a potato dextrose broth (PDB) to result in a spore concentration of 5×10^5 spores/ml, so as to prepare a PDB suspension spore solution. Subsequently, a peptide to be tested (TsORF18-2) was added to the PDB suspension spore solution, so that the final concentration of the peptide to be tested became 0 μM, 1 μM, 10 μM or 100 μM. It is to be noted that, as peptides to be tested, TsORF18 (full length) and TsORF18-40 a.a. were also used in the same manner as that of TsORF18-2. TsORF18 (full length) was dissolved in DMSO and was then used. On the other hand, TsORF18-2 and TsORF18-40 a.a were each dissolved in Milli-Q water and were then used. Thereafter, 10 μl each of the PDB suspension spore solution containing the peptide to be tested was dropped on the front side and the back side of the leaf of tomato (variety name: “Ponte Rosa”). In this condition, incubation was carried out at 25° C. for 2 days. Thereafter, the front and back sides of the leaf were observed by visual inspection.

[6] = test system: Colletotrichum destructivum; assay: Colletotrichum destructivum leaf inoculation test (Chinese cabbage leaf); format: in vivo; conditions: 25° C., 4 days, lesions by visual inspection
From the text: In the present example, a suspension comprising Colletotrichum destructivum and a peptide to be tested was dropped on a plant leaf, and lesions were then observed by visual inspection to evaluate the antimicrobial activity of the tested peptide. First, the pores of Colletotrichum destructivum were suspended in water to result in a spore concentration of 5×10^5 spores/ml, so as to prepare a water suspension of spores. Subsequently, peptides to be tested (TsORF18 (full length), TsORF18-40 a.a., and TsORF18-2) were each added to the water suspension of spores, so that the final concentration of the peptides to be tested became 0 μM, 1 μM, 10 μM or 100 μM. Thereafter, 10 μl each of the water suspension of spores containing the peptide to be tested was dropped on the front side and the back side of the leaf of Chinese cabbage (variety name: “Kigokoro 85”). In this condition, incubation was carried out at 25° C. for 4 days. Thereafter, the front and back sides of the leaf were observed by visual inspection.

Row | Substance | Plate antimicrobial activity test Colletotrichum destructivum (level) ([1]; peptide 1 μM) | Plate antimicrobial activity test Colletotrichum destructivum (level) ([1]; peptide 10 μM) | Plate antimicrobial activity test Colletotrichum destructivum (level) ([1]; peptide 100 μM) | Plate antimicrobial activity test Pyricularia oryzae (level) (Pyricularia oryzae; peptide 1 μM) | Plate antimicrobial activity test Pyricularia oryzae (level) (Pyricularia oryzae; peptide 10 μM) | Plate antimicrobial activity test Pyricularia oryzae (level) (Pyricularia oryzae; peptide 100 μM) | Plate antimicrobial activity test Fusarium oxysporum (level) (Fusarium oxysporum) | Plate antimicrobial activity test Collectotrichum orbiculare (level) ([2]; peptide 1 μM) | Plate antimicrobial activity test Collectotrichum orbiculare (level) ([2]; peptide 10 μM) | Plate antimicrobial activity test Collectotrichum orbiculare (level) ([2]; peptide 100 μM) | Plate antimicrobial activity test Botrytis cinerea (level) (Botrytis cinerea [3]; peptide 1 μM) | Plate antimicrobial activity test Botrytis cinerea (level) (Botrytis cinerea [3]; peptide 10 μM) | Plate antimicrobial activity test Botrytis cinerea (level) (Botrytis cinerea [3]; peptide 100 μM) | germination inhibitory activity against plant pathogenic filamentous fungi (in words) [4] | Leaf inoculation test Tomato/Botrytis cinerea (Botrytis cinerea [5]) | Leaf inoculation test Chinese cabbage/Colletotrichum destructivum ([6]; peptide 10 μM) | Leaf inoculation test Chinese cabbage/Colletotrichum destructivum ([6]; peptide 100 μM) | Leaf inoculation test Chinese cabbage/Colletotrichum destructivum ([6]; peptide 1 μM)
1 | ERTRKFWR (listed as Solanum lycopersicum) [TsORF18-2-8aa-9] | 0 | 0 | 0 | 0 | 0 | 1 | 3 and 0 | 0 | 0 | 1 | 0 | 0 | 3 | extremely excellent germination inhibitory activity |  |  |  | 
2 | WRIWK (listed as Solanum lycopersicum) [TsORF18-2-5aa-15] | 0 | 0 | 3 | 0 | 0 | 0 | 2 and 0 | 0 | 0 | 2 | 0 | 0 | 3 | extremely excellent germination inhibitory activity |  |  |  | 
3 | KFWRIWKG (listed as Solanum lycopersicum) [TsORF18-2-8aa-13] | 0 | 0 | 3 | 0 | 0 | 0 | 3 and 2 and 0 | 0 | 0 | 3 | 0 | 0 | 3 | extremely excellent germination inhibitory activity | ∘ | ∘ | ∘ | 
4 | RKFWR (listed as Solanum lycopersicum) [TsORF18-2-5aa-12] | 0 | 0 | 3 | 0 | 0 | 0 | 3 and 0 | 0 | 0 | 2 | 0 | 0 | 3 | extremely excellent germination inhibitory activity |  | ∘ | ∘ | 
5 | WRIWKGKT (listed as Solanum lycopersicum) [TsORF18-2-8aa-15] | 0 | 0 | 3 | 0 | 0 | 0 | 3 and 0 | 0 | 0 | 3 | 0 | 0 | 3 | extremely excellent germination inhibitory activity |  |  |  | 
6 | RTRKFWRI (listed as Solanum lycopersicum) [TsORF18-2-8aa-10] | 0 | 0 | 3 | 0 | 0 | 1 | 3 and 1 and 0 | 0 | 0 | 3 | 0 | 0 | 3 | extremely excellent germination inhibitory activity |  | ∘ | ∘ | 
7 | FWRIWKGK (listed as Solanum lycopersicum) [TsORF18-2-8aa-14] | 0 | 0 | 3 | 0 | 0 | 0 | 3 and 0 | 0 | 0 | 3 | 0 | 0 | 3 | extremely excellent germination inhibitory activity |  | ∘ | ∘ | Δ
8 | KFWRI (listed as Solanum lycopersicum) [TsORF18-2-5aa-13] | 0 | 0 | 3 | 0 | 0 | 1 | 3 and 0 | 0 | 0 | 3 | 0 | 0 | 3 | extremely excellent germination inhibitory activity |  | ∘ | ∘ | 
